Results: PMC2912430 (Biochemistry, 2010)
“And” between values parts separate entries of the source, which are not always exact repeats. Equal values may be shown once.

Experiments:
[1] = molecular target: T1, Escherichia coli IDI-1 (Escherichia coli, UniProt Q46822); settings: cited from earlier work
[2] = molecular target: T1, Escherichia coli IDI-1; assay: Acid lability assay, inhibition of the isomerization of IPP to DMAPP by IDI-1; format: biochemical; settings: for Type of inhibition: isomerization of IPP to DMAPP catalyzed by IDI-1
[3] = molecular target: T2, Thermus thermophilus IDI-2 (Thermus thermophilus, UniProt Q53W52); assay: Acid lability assay, inhibition of the isomerization of IPP to DMAPP by IDI-2; format: biochemical; settings: for Type of inhibition: isomerization of IPP to DMAPP catalyzed by IDI-2
[4] = molecular target: T2, Thermus thermophilus IDI-2; assay: Product studies by 1H NMR, incubation with IDI-2; format: biochemical; settings: for Isomerization (turnover as substrate) by NMR: IDI-2, 37 °C, spectra at one-hour intervals over 12 h; for Reactivity relative to the natural substrates (times less reactive): IDI-2, estimate based on NMR studies
[5] = system: IDI-1; settings: positively charged ammonium group at physiological pH; cited from earlier work
[6] = molecular target: T2, Thermus thermophilus IDI-2; settings: cited from earlier work

T1 sequence (Q46822 whole entry): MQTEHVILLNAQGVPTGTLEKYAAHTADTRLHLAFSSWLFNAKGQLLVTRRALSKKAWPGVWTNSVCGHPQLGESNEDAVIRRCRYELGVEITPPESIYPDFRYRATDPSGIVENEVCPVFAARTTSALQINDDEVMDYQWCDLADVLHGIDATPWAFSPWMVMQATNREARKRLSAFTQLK

SMILES	Km [1] [µM]	IC50 [2] [µM]	Type of inhibition [2]	IC50 [3] [µM]	Type of inhibition [3]	Isomerization (turnover as substrate) by NMR [4]	Reactivity relative to the natural substrates (times less reactive) [4]	also measured
CC(C)=CCOP(=O)(O)OP(=O)(O)O [DMAPP, dimethylallyl diphosphate]	14							
C#CCCOP(=O)(O)OP(=O)(O)O [1-OPP, 3-Butyn-1-yl diphosphate]		~200	competitive inhibitors	~50	competitive inhibitors	no evidence was seen for isomerization	at least 1000 times	
CN(C)CCOP(=O)(O)OP(=O)(O)O [N,N-Dimethyl-2-amino-1-ethyl diphosphate]								Affinity for IDI-1 [5]: sub-nanomolar affinity
C=C(C)CCOP(=O)(O)OP(=O)(O)O [IPP, isopentenyl diphosphate]	7.9							Km [6]: 5.6 µM
C=C=CCOP(=O)(O)OP(=O)(O)O [2-OPP, 2,3-Butadien-1-yl diphosphate]		~200	competitive inhibitors	~50	competitive inhibitors	no evidence was seen for isomerization	at least 1000 times	Ki ([2]; KI, IDI-1, acid lability assay, competitive inhibition): 49 µM and 31 µM
